Laboratory results from patent publication US20100221304A1, “Bionanocomposite Materials and Methods For Producing and Using the Same” (The Regents of the University of Colorado, a body corporate, priority 2009, published 2010).

Legend:
SMC = SMC migration, in-growth and contraction in collagen-chitosan scaffolds; type: cell-based
Source text: In addition, collagen-chitosan scaffolds have been developed as a structural support for the formation of a vascular media equivalent. In particular, the effects of cross-linking and PDGF-BB (with or without heparin or serum) on biomechanical properties, SMC migration, SMC contraction, and wound healing have been evaluated (FIG. 12). […] For example, it enhanced the strength and modulus while inhibited SMC in-growth and contraction. With a low cross-linking condition, the molecule effects of PDGF-BB, a SMC attractant, were studied with or without serum or heparin.

smooth muscle cell (SMC) = test: SMC contraction and invasion in genipin-crosslinked collagen-chitosan-elastin (CCE) gel constructs; type: cell-based
Source text: The vascular media, a layer of the blood vessel wall containing smooth muscle cell (SMC), is often the target functional tissue in the construction of biomimetic vascular grafts. It has a major contribution to mechanical properties and biological functions of vessels including contraction and healing. The present inventors have studied the effects of crosslinking and biomolecule conditions in the development of mechanically strong and stable, biologically functional constructs for vascular media equivalents. To this end, genipin was used to crosslink collagen-chitosan-elastin (CCE) constructs, and the effects of genipin concentration on the mechanical properties and SMC activity of CCE gel constructs were examined.
To enhance biological activities of cells on the genipin-treated CCE constructs, soluble molecule factors were incorporated with structural constructs and their effects on SMC activities were evaluated. These conditions include heparin, platelet-derived […] growth factor (PDGF), high-concentrated fetal bovine serum (h-FBS), mixture of heparin and PDGF and mixture of h-FBS and PDGF. […] The ingrowth of SMC in the vascular media equivalent also promoted wound healing process of the construct scaffold by showing the closure of the puncture hole (FIG. 14).

COC(=O)C1=CO[C@@H](O)[C@@H]2C(CO)=CC[C@H]12 [genipin]
SMC in-growth and contraction (SMC; collagen-chitosan scaffolds cross-linked using genipin): inhibited | SMC contraction or invasion in the gels (smooth muscle cell (SMC); genipin at a concentration of 5 mM or above): No SMC contraction or invasion was observed | SMC contraction and invasion in the CCE gels (smooth muscle cell (SMC); genipin crosslinking): significantly inhibited

heparin
PDGF-induced cell migration and contraction (SMC; low cross-linking condition, PDGF-BB with or without serum or heparin): inhibited | PDGF-induced SMC invasion into the crosslinked constructs (smooth muscle cell (SMC)): inhibitory effects
